Results published in US7276512B2, “Benzo[a]pyrano[3,2-h]acridin-7-one compounds” (Les Laboratoires Servier, priority 2003, dated 2007).
pIC50: −log10 of the molar value.

Tests used:
[1] = test system: C38 adenocarcinoma of the colon; assay: Anti-tumour activity with respect to C38 adenocarcinoma of the colon; type: in vivo; conditions: i.v. on days 12 and 22, s.c. C38 in B6D2F1 mice
Procedure: Anti-Tumour Activity with Respect to C38 Adenocarcinoma of the Colon
Tumour fragments of C38 adenocarcinoma of the colon weighing approximately 30 mg were implanted under the skin of B6D2F1 mice (Iffa Credo, France) on day 0. After growth of the tumour, the mice were divided into control (18 animals) and treated (6 or 7 animals) groups, which were homogeneous with respect to tumour size. The products were administered twice by the i.v. route on days 12 and 22, at their Maximum Tolerated Dose (MTD), MTD/2 and MTD/4.
The tumours were measured twice a week and the tumour volumes were calculated according to the following formula: volume (mm^3)=length (mm)×[…]/2.
The anti-tumour activity is expressed as % T/C: […]
V0 and Vt being the initial volume of the tumour and its volume at measurement time t, respectively.
The optimum dose is the dose giving the lowest T/C value without toxicity (early death or weight loss greater than 20%).

L1210 murine leukaemia = assay: In vitro cytotoxicity, Microculture Tetrazolium Assay, L1210; type: cell-based; conditions: L1210, 2 days incubation; read-out: IC50 (concentration which inhibits proliferation of the treated cells by 50%)
Procedure: (§1) Four cell lines were used: • 1 murine leukaemia: L1210, • 1 human epidermoid carcinoma: KB-3-1, • 1 human colon carcinoma: HT29, • 1 human prostate carcinoma: LNCap.
(§2) The cells are cultured in RPMI 1640 complete culture medium containing 10% foetal calf serum, 2 mM glutamine, 50 units/ml of penicillin, 50 μg/ml of streptomycin and 10 mM Hepes, pH=7.4. The cells are distributed on microplates and are exposed to the cytotoxic compounds. The cells are then incubated for 2 days (L1210) or 4 days (human lines). The number of viable cells is then quantified by a colorimetric assay, the Microculture Tetrazolium Assay (Cancer Res. 1987, 47, 939-942). The results are expressed in terms of the IC50 (the concentration of cytotoxic agent which inhibits proliferation of the treated cells by 50%).

[2] = test system: KB-3-1 human epidermoid carcinoma; assay: In vitro cytotoxicity, Microculture Tetrazolium Assay, KB-3-1; type: cell-based; conditions: KB-3-1, 4 days incubation; read-out: IC50 (concentration which inhibits proliferation of the treated cells by 50%)
Procedure: as §1, §2

[3] = test system: HT29 human colon carcinoma; assay: In vitro cytotoxicity, Microculture Tetrazolium Assay, HT29; type: cell-based; conditions: HT-29, 4 days incubation; read-out: IC50 (concentration which inhibits proliferation of the treated cells by 50%)
Procedure: as §1, §2

[4] = test system: LNCap human prostate carcinoma; assay: In vitro cytotoxicity, Microculture Tetrazolium Assay, LNCap; type: cell-based; conditions: 4 days incubation, read-out: IC50 (concentration which inhibits proliferation of the treated cells by 50%)
Procedure: as §1, §2

Compound	T/C ([1]; optimum dose of 100 mg/kg)	pIC50 (L1210 murine leukaemia)	pIC50 [2]	pIC50 [3]	pIC50 [4]	T/C ([1]; optimum dose of 4 mg/kg)	inhibition of the tumour growth ([1]; optimum dose of 4 mg/kg)
COc1cc2c(c3c1c(=O)c1ccccc1n3C)C=CC(C)(C)O2 [acronycine, reference compound]	27%	–	–	–	–	–	–
COc1cc2c(c3c1c(=O)c1c4ccccc4ccc1n3C)[C@@H](OC(C)=O)[C@@H](OC(C)=O)C(C)(C)O2 (racemic) [Example 5, (±)-cis-1,2-Diacetoxy-6-methoxy-3,3,14-trimethyl-1,2,3,14-tetrahydro-7H-benzo[α]pyrano[3,2-h]-acridin-7-one]	–	6.14	6.85	5.93	6.24	5%	95%
COc1cc2c(c3c1c(=O)c1c4ccccc4ccc1n3C)[C@H]1OC(=O)O[C@H]1C(C)(C)O2 (racemic) [Example 6, (±)-cis-7-Methoxy-4,4,15-trimethyl-15,15c-dihydro-4H-benzo[α][1,3]-dioxolo[4′,5′:4,5]pyrano[3,2-h]acridine-2,8[3aH]-dione]	–	7.22	7.82	–	–	–	–
